One test has as its target BRD4-BD12 (1-477) (Homo sapiens (Human), UniProt O60885). Description: Alphascreen binding assay BRD4-BD12. As to conditions: BRD4(1 2) H4; read-out: Biochemical activity (IC50 μM) BRD4(1 2) H4. An outline of the steps: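 First, compound was preincubated 1 h at room temperature with the His-tagged BRD4 protein (BD1 44-164 or tandem BD12 1-477) and acetylated H4 peptide. Next, donor and acceptor beads were added at 7.5 μg/ml final. After 30 min, AlphaScreen emission was recorded.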
A general note: Alpha assays give light when donor and acceptor beads are brought close together.

Another test concerns MV-4-11 cells. Description: Oncology cell growth assay MV-4-11 (CellTiter Glo). As to conditions: Homo sapiens, MV4-11, 72 h; MV-4-11, 3d growth; read-out: Cell activity (IC50 μM) MV-4-11 3d-Growth. Type of test: cell-based. In a few lines:
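MV-4-11 AML cells (MLL-AF4), 3000 per well, exposed to 8-point 1:3 compound titration from 10 μM top concentration (0.2% DMSO) for 72 h. Viability by CellTiter Glo luminescence, normalized to DMSO controls; pIC50 from four-parameter curve fit.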
For orientation: Cellular ATP, detected with luciferase, serves as a proxy for viable cell number.

The structures appear in SMILES notation.

In general, IC50 refers to the concentration that gives 50% inhibition. As for `COC(=O)Cc1ccc(-c2cn(C(c3ccccn3)C3CCCCC3)c3cc(-c4c(C)noc4C)cnc23)cc1` (stereo not shown) [P-1017, methyl 2-[4-[1-[cyclohexyl(2-pyridyl)methyl]-6-(3,5-dimethylisoxazol-4-yl)pyrrolo[3,2-b]pyridin-3-yl]phenyl]acetate], the IC50 at BRD4-BD12 (1-477) and with MV-4-11 cells was under 1 µM throughout.
Consider `Cc1noc(C)c1-c1cnc2c(-c3ccc(CC(=O)O)cc3)cn(C(c3ccccn3)C3CCCCC3)c2c1` (stereo not shown) [P-1018, 2-[4-[1-[cyclohexyl(2-pyridyl)methyl]-6-(3,5-dimethylisoxazol-4-yl)pyrrolo[3,2-b]pyridin-3-yl]phenyl]acetic acid], for which the 50% inhibitory concentration (IC50) at BRD4-BD12 (1-477) and with MV-4-11 cells was under 1 µM in each case.
With `Cc1ccc(-c2cn([C@@H](C)c3ccccn3)c3cc(-c4c(C)noc4C)cnc23)cn1` [P-1019, 3,5-dimethyl-4-[3-(6-methyl-3-pyridyl)-1-[(1S)-1-(2-pyridyl)ethyl]pyrrolo[3,2-b]pyridin-6-yl]isoxazole], the IC50 at BRD4-BD12 (1-477) and in the test with MV-4-11 cells was under 1 µM throughout.
Turning to `Cc1noc(C)c1-c1cnc2c(-c3ccc(C(C)(C)C(=O)O)cc3)cn([C@@H](C)c3ccccn3)c2c1` [P-1021, 2-[4-[6-(3,5-dimethylisoxazol-4-yl)-1-[(1S)-1-(2-pyridyl)ethyl]pyrrolo[3,2-b]pyridin-3-yl]phenyl]-2-methyl-propanoic acid], the IC50 at BRD4-BD12 (1-477) and in the test on MV-4-11 cells was under 1 µM throughout.
For the molecule `CC[C@@H](c1ccccn1)n1cc(-c2ccc(C(=O)O)c(F)c2)c2ncc(-c3c(C)noc3C)cc21` [P-1022, 4-[6-(3,5-dimethylisoxazol-4-yl)-1-[(1S)-1-(2-pyridyl)propyl]pyrrolo[3,2-b]pyridin-3-yl]-2-fluoro-benzoic acid], the IC50 at BRD4-BD12 (1-477) and in the test on MV-4-11 cells was under 1 µM throughout.
Take `CC[C@@H](c1ccccn1)n1cc(-c2ccc(F)c(C(=O)O)c2)c2ncc(-c3c(C)noc3C)cc21` [P-1023, 5-[6-(3,5-dimethylisoxazol-4-yl)-1-[(1S)-1-(2-pyridyl)propyl]pyrrolo[3,2-b]pyridin-3-yl]-2-fluoro-benzoic acid]: the IC50 on BRD4-BD12 (1-477) and in the test on MV-4-11 cells was under 1 µM in each case.
`CC[C@@H](c1ccccn1)n1cc(-c2ccc(C)c(C(=O)O)c2)c2ncc(-c3c(C)noc3C)cc21` [P-1024, 5-[6-(3,5-dimethylisoxazol-4-yl)-1-[(1S)-1-(2-pyridyl)propyl]pyrrolo[3,2-b]pyridin-3-yl]-2-methyl-benzoic acid]: the concentration for half-maximal inhibition (IC50) at BRD4-BD12 (1-477) and in the test on MV-4-11 cells was under 1 µM each time.
As for `CC[C@@H](c1ccccn1)n1cc(-c2ccc(C(=O)O)cc2F)c2ncc(-c3c(C)noc3C)cc21` [P-1025, 4-[6-(3,5-dimethylisoxazol-4-yl)-1-[(1S)-1-(2-pyridyl)propyl]pyrrolo[3,2-b]pyridin-3-yl]-3-fluoro-benzoic acid], the IC50 on BRD4-BD12 (1-477) and in the test with MV-4-11 cells was under 1 µM throughout.
For `CC[C@@H](c1ccccn1)n1cc(-c2ccc(C(=O)O)c(C)c2)c2ncc(-c3c(C)noc3C)cc21` [P-1026, 4-[6-(3,5-dimethylisoxazol-4-yl)-1-[(1S)-1-(2-pyridyl)propyl]pyrrolo[3,2-b]pyridin-3-yl]-2-methyl-benzoic acid], the half-maximal inhibitory concentration (IC50) at BRD4-BD12 (1-477) and in the test with MV-4-11 cells was under 1 µM throughout.
For `CC[C@@H](c1ccccn1)n1cc(-c2ccc(C(=O)O)c(Cl)c2)c2ncc(-c3c(C)noc3C)cc21` [P-1028, 2-chloro-4-[6-(3,5-dimethylisoxazol-4-yl)-1-[(1S)-1-(2-pyridyl)propyl]pyrrolo[3,2-b]pyridin-3-yl]benzoic acid], the IC50 on BRD4-BD12 (1-477) and in the test on MV-4-11 cells was under 1 µM throughout.
Consider `CC[C@@H](c1ccccn1)n1cc(-c2ccc(C(=O)O)cc2Cl)c2ncc(-c3c(C)noc3C)cc21` [P-1029, 3-chloro-4-[6-(3,5-dimethylisoxazol-4-yl)-1-[(1S)-1-(2-pyridyl)propyl]pyrrolo[3,2-b]pyridin-3-yl]benzoic acid], for which the 50% inhibitory concentration (IC50) on BRD4-BD12 (1-477) and with MV-4-11 cells was under 1 µM each time.

These data come from patent US10519177B2, “Heterocyclic compounds and uses thereof” (Plexxikon Inc., priority 2013, dated 2019).
